For data set [1] the following is noted: cited from earlier work.
For data set [2], the system named is Npc1^−/− mice. The data set is described as follows: CatWalk automated gait analysis in Npc1−/− mice. It is filed as in vivo, mouse. As to conditions: Npc1−/− mice, gait analysis at 10 weeks of age. As for the experimental part:
(§1) BALBc/NPC ^h and Sandhoff mice were bred as heterozygotes to generate affected mice (Npc1^−/−, Hexb^−/−) and controls (Npc^+/+, Hexb^+/+). The mice were housed under non-sterile conditions, with food and water available ad libitum. All experiments were conducted using protocols approved by the UK Home Office Animal Scientific Procedures Act, 1986.
(§2) ADLL and enantiomers (ADLL: Molekula #73891210, ALL: Sigma Aldrich #441511, ADL: Sigma #A0876) were administered as dry admix in powdered mouse diet (PicoLab Rodent Diet 20/5053, LabDiet) at a dose of 0.1 g/kg/day for in vivo studies. Treatment groups for in vivo study consisted of at least 5 mice per group. In vitro studies were conducted with each compound dissolved in PBS to generate a 50 mM stock solution and diluted to a 1 mM working concentration in media (DMEM High Glucose-Gibco #10566016).
(§3) Miglustat (Monsanto/Oxford GlycoSciences) was administered as a dry solid mixed with powdered chow (600 mg/kg/day) (see above) alone or in combination with ADLL.
(§4) The weight and activity of each mouse was recorded weekly until reaching the humane endpoint (defined as a loss of 1 g body weight within 24 h). Gait analysis was performed using CatWalk 10.5 system (Noldus) according to the manufacturer's instructions and five runs were recorded per animal at each time point. The camera was set to 40 cm below the walkway, the walkway was approximately 4 cm wide, and detection settings set to camera gain 14.05 and green intensity 0.12. Motor function was measured using an accelerating NG Rota Rod for mice (Ugo Basile) starting from 1 rpm to 10 rpm, accelerating every 30 seconds by one rpm. Bar crossing experiments on Sandhoff animals were conducted to measure motor strength and coordination. The apparatus used was modified from published studies. Briefly, a metal bar (1.2 mm width and 26 cm in length) was suspended horizontally between two wooden supports 30 cm high over a cushioned surface and animals were allowed to grasp the center of the bar with forepaws only, the tail was released, and the clock was started. Latency to cross or fall from the bar was scored, with 120 sec, maximum, to termination of each trial. A score was given to each animal between +120 and −120. If crossing time was greater than 0, then score=120−CT; if falling time was greater than 0, the score=FT−120.

Data set [3] deals with Npc1^−/− mice. The data set is described as follows: Survival / life span of Npc1−/− mice. The class given is in vivo, mouse. As to conditions: Npc1−/− mice; ADLL 0.1 g/kg/day, miglustat 600 mg/kg/day in chow; untreated Npc1−/− 87 days. The method, then: as §1, §2, §3
as §4, with “Briefly, a metal bar (1.2 mm width and 26 cm in length) was suspended horizontally between two wooden supports 30 cm high over a cushioned surface and animals were allowed to grasp the center of the bar with forepaws only, the tail was released, and the clock was started.” left out, “A score was given to each animal between +120 and −120. If crossing time was greater than 0, then score=120−CT; if falling time was greater than 0, the score=FT−120.” left out

This is an account of results in patent US12697316B2, “Combination therapy with acetyl-leucine and miglustat” (INTRABIO LTD., priority 2019, dated 2026).

For the compound `CCCCN1C[C@H](O)[C@@H](O)[C@H](O)[C@H]1CO` [miglustat, 1,5-(butylimino)-1,5-dideoxy-D-glucitol], the “adverse effects in the treatment subjects” value in data set [1] (NPC first-line therapy, Champion et al. 2010) was “causes unwanted weight loss and gastrointestinal disturbances”. Besides, in data set [1] (known effect, through appetite suppression), the weight loss result was “known to cause weight loss through appetite suppression”. For the same compound, in data set [2], the Stand mean entry is “significantly improved” and the “hind Duty Cycle percentages” value is given as “showed no benefit”. For the same compound, in data set [3], the median survival is reported as 117 days.
